The record followed here is patent publication US6229055A, “Synthesis of fluorinated xanthene derivatives” (Molecular Probes, Inc., priority 2000, dated 2001).

As a reminder, the pKa is the pH at which an ionisable group is half protonated. High values mean a weaker acid or stronger base, low ones a stronger acid or weaker base.

Series [1] can be described thus: Spectral properties of selected fluorinated fluoresceins and rhodols. The class given is physicochemical. The note with it: for Abs.: absorption maximum; for Em.: emission maximum; for ε × 10^-3: extinction coefficient, value is ε × 10^-3; for Quantum Yield: fluorescence quantum yield.
A short description of series [2]: pH titration of fluorophores (pKa).
Experimental: The dye of interest is first dissolved in a series of buffers that have each been calibrated using a pH meter. Acetate buffers are typically used in the range of pH 46, and phosphate buffers in the pH range 68. Absorption measurements are made using solutions that are approximately 10 1M in concentration, and fluorescence measurements are made using solutions that are approximately 1 μM in concentration. The absorption or emission data is then plotted versus pH to determine pKa values.
A short description of series [3]: Photodecomposition on illumination in fluorometer. The series is classed as physicochemical. The note with it: % of decreased fluorescence intensity after 33 minutes of illumination in fluorometer at wavelength of maximum excitation. The protocol: *% of decreased fluorescence intensity after 33 minutes of illumination in
fluorometer at wavelength of maximum excitation

In series [4] the test system is rabbit polyclonal anti-fluorescein IgG (H+L) fraction. The series is described as follows: Fluorescence quenching by anti-fluorescein antibody. The note with it: 5×10^-9 M dye. The series is classed as binding. The protocol:
Solutions of 5×10^-9 M fluorescein and 5×10^-9 M 2',7'-difluorofluorescein (Compound 29) are prepared in 100 mM potassium phosphate buffer, pH 8.0. The fluorescence of each solution is read with excitation at 490 nm. Sequential additions of 0.5 mg/mL rabbit polyclonal anti-fluorescein IgG (H+L) fraction (Molecular Probes, Inc.) are added and the fluorescence measurements are repeated.

Setting [5] is: given in the synthesis examples.
[6] abbreviates: antibody volume 0 μL, pH 8.0, excitation 490 nm.
Setting [7] is: antibody volume 2 μL of 0.5 mg/mL, pH 8.0.
Where [8] appears, read: antibody volume 4 μL of 0.5 mg/mL, pH 8.0.
[9] abbreviates: antibody volume 6 μL of 0.5 mg/mL, pH 8.0.
The mark [10] stands for this setting: antibody volume 8 μL of 0.5 mg/mL, pH 8.0.
Where [11] appears, read: antibody volume 10 μL of 0.5 mg/mL, pH 8.0.
Setting [12] is: antibody volume 12 μL of 0.5 mg/mL, pH 8.0.
The mark [13] stands for this setting: antibody volume 15 μL of 0.5 mg/mL, pH 8.0.
Where [14] appears, read: approximate, from fluorescence emission versus pH (FIG. 3), in water.

In the case of `Nc1c(F)c(F)c2c(c1F)C1(OC2=O)c2ccc(O)cc2Oc2cc(O)ccc21` [Compound 68, 6-amino-4,5,7-trifluorofluorescein], in series [1], the Abs. is listed as 503 nm, the Em. worked out at 522 nm, the “ε × 10^-3” value is reported as 77.5 cm^-1 M^-1 and the “Quantum Yield” value is listed as 0.053.
“5-(and-6)-carboxy-N,N-dimethyl-7'-fluororhodol”: the pKa in series [2] (Table 1) was determined as 5.3. For the same compound, in series [3], the photodecomposition is 5.0%. In addition, in series [1], the Abs. came out at 520 nm and the Em. is 546 nm.
For the compound `O=C1OC2(c3cc(F)c(O)cc3Oc3cc(O)c(F)cc32)c2c(F)c(F)c(F)c(F)c21` [Compound 26, 2',4,5,6,7,7'-hexafluorofluorescein], the pKa in series [2] (Table 1) is given as 4.8. This compound also gave a photodecomposition in series [3] of 4.0%. Also, in series [1], the Abs. stood at 508 nm, the Em. is reported as 527 nm, the “ε × 10^-3” value amounted to 81.2 cm^-1 M^-1 and the “Quantum Yield” value stood at 0.96.
With `O=C(O)CSc1c(F)c(F)c2c(c1F)C1(OC2=O)c2cc(F)c(O)cc2Oc2cc(O)c(F)cc21` [Compound 59, 6-carboxymethylthio-2',4,5,7,7'-pentafluorofluorescein], in series [1], the Abs. was 507 nm, the Em. was found to be 526 nm, the “ε × 10^-3” value is given as 87.5 cm^-1 M^-1 and the “Quantum Yield” value was 0.86.
In series [2] (Table 1), “5-(and-6)-carboxy-4',5'-difluorofluorescein [Compound 41]” displayed a pKa of 5.2. Further, in series [3], the photodecomposition was 11%. In addition, in series [1], the Abs. is 510 nm, the Em. is recorded as 534 nm, the “ε × 10^-3” value came out at 84.2 cm^-1 M^-1 and the “Quantum Yield” value is 0.43.
In series [2] (Table 1), `O=c1c(F)c2oc3c(F)c(O)c(F)c(F)c3c(-c3c(F)c(F)c(F)c(F)c3F)c-2c(F)c1F` [Compound 50, 1,2,4,5,7,8-hexafluoro-6-hydroxy-9-pentafluorophenylxanthen-3-one] came in with a pKa of 2.8. In series [3], this compound showed a photodecomposition of 4.0%. Besides, the “Quantum Yield” value in series [1] turned out to be 0.11.
On to “5-(and-6)-carboxy-N,N-dimethylrhodol [reference compound]”, for which, in series [1], the Abs. is on record as 518 nm, the Em. stood at 544 nm and the “Quantum Yield” value is on record as 0.26.
The compound “5-(and-6)-carboxy-2',4',5',7'-tetrafluorofluorescein [Compound 40]” yielded a pKa in series [2] (Table 1) of 3.7. For the same compound, the photodecomposition in series [3] is 6.0%. In series [1], the Abs. came out at 510 nm, the Em. was found to be 533 nm, the “ε × 10^-3” value is 81.3 cm^-1 M^-1 and the “Quantum Yield” value is listed as 0.59.
Take `[N-]=[N+]=Nc1c(F)c(F)c2c(c1F)C1(OC2=O)c2ccc(O)cc2Oc2cc(O)ccc21` [Compound 78, 6-azido-4,5,7-trifluorofluorescein]: in series [1], the Abs. worked out at 507 nm, the Em. is on record as 527 nm, the “ε × 10^-3” value is recorded as 79.9 cm^-1 M^-1 and the “Quantum Yield” value was found to be 0.92.
In the same order, the values of “5-(and-6)-carboxy-2',7'-dichlorofluorescein [reference compound]” are 504 nm, 530 nm, 80.3 cm^-1 M^-1 and 0.75.
With `CN(C)c1cc2c(cc1F)C1(OC(=O)c3ccccc31)c1ccc(O)cc1O2` (stereo not shown) [Compound 53, N,N-dimethyl-7'-fluororhodol], the pKa in series [2] (setting [5]) came out at 5.3.
`O=C1OC2(c3cc(F)c(O)cc3Oc3cc(O)c(F)cc32)c2ccccc21` [Compound 29, 2',7'-difluorofluorescein]: the “Fluorescence Intensity” value in series [4] (setting [6]) was determined as 100%; in series [4] (setting [7]), 83.6%; in series [4] (setting [8]), 67.3%; in series [4] (setting [9]) it was 51.9%; in series [4] (setting [10]), 36.5%; in series [4] (setting [11]), 23.8%. Besides, the figures for the “Fluorescence Intensity” value in series [4] (setting [12]) and in series [4] (setting [13]) were 13.4% and 6.3%, respectively. Further, the pKa is 4.7 in series [2] (Table 1) and ~ 4.7 in series [2] (setting [14]). In series [3], this compound displayed a photodecomposition of 8.0%. In addition, in series [1], the Abs. came to 490 nm. In series [1], the Em. is 513 nm. Besides, in series [1], the “ε × 10^-3” value came to 84.7 cm^-1 M^-1. Further, in series [1], the “Quantum Yield” value is reported as 0.97.
`O=C1OC2(c3cc(Cl)c(O)cc3Oc3cc(O)c(Cl)cc32)c2c(F)c(F)c(F)c(F)c21` [Compound 37, 2',7'-dichloro4,5,6,7-tetrafluorofluorescein] showed a pKa in series [2] (Table 1) of 4.2. The compound also displayed a photodecomposition in series [3] of 3.0%. In addition, in series [1], the Abs. was determined as 520 nm, the Em. is recorded as 538 nm, the “ε × 10^-3” value was 88.5 cm^-1 M^-1 and the “Quantum Yield” value is 0.80.
In series [2] (setting [5]), `CN(C)c1ccc2c(c1)Oc1cc(O)c(F)cc1C21OC(=O)c2ccccc21` (stereo not shown) [Compound 51, 2'-fluoro-N,N-dimethylrhodol] yielded a pKa of 4.2.
Consider “5-(and-6)-carboxy-2'-fluororhodol [Compound 55]”, for which the pKa in series [2] (Table 1) worked out at 3.8. In series [3], the photodecomposition is 4.0%. For the same compound, in series [1], the Abs. came out at 495 nm and the Em. is on record as 518 nm.
Compound `Nc1ccc2c(c1)Oc1cc(O)c(F)cc1C21OC(=O)c2ccccc21` (stereo not shown) [Compound 54, 2'-fluororhodol] came in with a pKa in series [2] (setting [5]) of 3.8.
In series [2] (Table 1), “5-(and-6)-carboxyrhodol [reference compound]” had a pKa of 5.6. This compound also came in with a photodecomposition in series [3] of 4.0%. Moreover, in series [1], the Abs. came out at 494 nm, the Em. was 521 nm, the “ε × 10^-3” value was determined as 69.6 cm^-1 M^-1 and the “Quantum Yield” value is reported as 0.89.
In turn, `O=C(O)c1ccc(-c2c3cc(F)c(=O)cc-3oc3cc(O)c(F)cc23)c(S(=O)(=O)O)c1` [9-(4-carboxy-2-sulfo)-6-hydroxy-2,7-difluoro-3H-xanthene-3-one] yielded a pKa in series [2] (Table 1) of 4.3. In series [3], this compound showed a photodecomposition of 7.3%. In series [1], the Abs. stood at 497 nm, the Em. worked out at 517 nm, the “ε × 10^-3” value is reported as 83.8 cm^-1 M^-1 and the “Quantum Yield” value came to 0.92.
In series [2] (Table 1), “5-(and-6)-carboxy-2',7'-difluorofluorescein” showed a pKa of 4.8. In series [3], the photodecomposition came out at 9.0%. Also, in series [1], the Abs. was found to be 492 nm, the Em. is given as 516 nm, the “ε × 10^-3” value amounted to 85.9 cm^-1 M^-1 and the “Quantum Yield” value was 0.92.
Compound 5-(and-6)-carboxy-7'-fluororhodol returned a pKa in series [2] (Table 1) of 5.2. Besides, the photodecomposition in series [3] is given as 4.0%. In series [1], the Abs. was determined as 494 nm and the Em. was 519 nm.
`Nc1cc2c(cc1F)C1(OC(=O)c3ccccc31)c1ccc(O)cc1O2` (stereo not shown) [Compound 52, 7'-fluororhodol]: the pKa in series [2] (setting [5]) was determined as 5.2.
Regarding `O=C(O)CSc1c(F)c(F)c2c(c1F)C1(OC2=O)c2ccc(O)cc2Oc2cc(O)ccc21` [Compound 58, 6-carboxymethylthio-4,5,7-trifluorofluorescein], the pKa in series [2] (Table 1) was 4.5. Also, the photodecomposition in series [3] is 5.0%. Further, in series [1], the Abs. is listed as 507 nm, the Em. amounted to 526 nm, the “ε × 10^-3” value is listed as 63.5 cm^-1 M^-1 and the “Quantum Yield” value came to 0.88.
In series [2] (Table 1), “5-(and-6)-carboxy-N,N-dimethyl-2'-fluororhodol” showed a pKa of 4.2. Besides, the photodecomposition in series [3] was found to be 5.0%. In series [1], this compound had an Abs. of 519 nm and an Em. of 553 nm.
Turning to `O=C1OC2(c3cc(Cl)c(O)cc3Oc3cc(O)c(Cl)cc32)c2ccccc21` [2',7'-dichlorofluorescein, reference compound], the pKa in series [2] (Table 1) is listed as 5.1; in series [2] (setting [14]) it was ~ 5.1.
For `O=C1OC2(c3ccc(O)cc3Oc3cc(O)ccc32)c2ccccc21` [fluorescein, reference compound], the “Fluorescence Intensity” value in series [4] (setting [6]) was found to be 100%; in series [4] (setting [7]), 84.6%; in series [4] (setting [8]) it was 68.8%; in series [4] (setting [9]), 54.3%; in series [4] (setting [10]), 38.5%; in series [4] (setting [11]), 22.9%. Moreover, the “Fluorescence Intensity” value in series [4] (setting [12]) amounted to 11.7%; in series [4] (setting [13]), 4.4%. The compound also came in with a pKa in series [2] (Table 1) of 6.5. The photodecomposition in series [3] stood at 17%. Also, the Abs. in series [1] is given as 490 nm. For the same compound, in series [1], the Em. came to 514 nm. The “ε × 10^-3” value in series [1] is on record as 82.2 cm^-1 M^-1. In addition, in series [1], the “Quantum Yield” value amounted to 0.92.
